{"source": "patent US9763985B2", "about": "“Antigen-specific central-memory T cell preparations having high CD4+ fraction” (priority 2011, dated 2017)", "type_in_all_cases": "cell-based, human", "key": {"CMV-specific T cells [1]": {"system": "CMV-specific T cells", "test": "Intracellular cytokine and activation marker staining after antigen specific stimulation with peptide loaded APCs", "conditions": "for quantity and quality of virus-specific T cells: in vitro", "protocol": "(§1) Following antigen specific stimulation, cytokine secretion (IFNγ, TNFα and IL2) and activation marker expression (CD137 and CD154) were determined by intracellular fluorescence staining. All antibodies were purchased from Becton Dickinson (BD), except indicated. Virus infected monocytes and peptide-pool loaded LCL or monocytes (1 μg/mL IE-1/pp65) were added to T cells in diluting ratio of 1:10. Unpulsed LCL or monocytes (DMSO incubated) display unstimulated control. For effector cytokine detection, cultured T cells were re-stimulated for 18 h in the presence of 1 μg/mL brefeldin A (Sigma-Aldrich). For CD107a (H4A3) detection, 2 μM monensin (Golgi Stop, BD) was ancillary added. Cells were then harvested and phenotype was stained with monoclonal antibodies for surface markers CD3 (UCHT1, eBioscience), CD8 (3B5, Invitrogen) and CD4 (SK3). To define memory phenotypes, T cells were extracellularly stained for CCR7 (#150503, R&D), CD62L (DREG56, Beckman Coulter), CD45RA (2H4LDH11LDB9, Beckman Coulter) and CD127 (hIL-7R-M21). To exclude dead cells, live/dead-discrimination staining-dye (Invitrogen) was added. Subsequently, cells were permeabilized with Perm2 solution (BD Biosciences) and stained for IFNγ (4S.B3, eBiosciences), TNFα (MAb11), IL2 (MQ1-17H12), CD137 (4B4-1) and CD154 (TRAP1). To define regulatory T cells, T cells were stained intranuclear for Foxp3 (259D/C7) and Helios (22F6, BioLegend). For intracellular staining of Foxp3 and Helios, Foxp3 staining kit from eBioscience was used. Cells were measured with a LSR-II flow cytometer and analyzed using FlowJo Version 8 software (Tree Star). Lymphocytes were gated based on the FSC versus SSC profile and subsequently gated on FSC (height) versus FSC to exclude doublets.\nCD4+ and CD8+ T cells (A Sirolimus; B aIL2R antagonist). Frequencies were assessed following antigen specific stimulation. Specific T-cells were stimulated for 18 h (16 h Brefeldin A) w/peptide loaded APCs in ratio of 1:10. APCs were pulsed with 1 μg/mL IE-1/pp65 peptide pool. IFNγ, TNFα and IL2 cytokine secretion and CD137 and CD154 activation marker expression were determined by intracellular staining. Cells were permeabilized and stained for IFNγ, IL2, TNFα, live/dead dye, CD3, CD4, CD8, CD137 and CD154."}, "CMV-specific T cells [2]": {"system": "CMV-specific T cells", "test": "Expansion of CMV-specific T cell culture over 18 days", "conditions": "for expansion of central memory T cells (TCM): after 18 d of treatment, FIG. 4D", "protocol": "(§2) CMV-specific T-cells were enriched and expanded using a previously described technique (Becker et al., Nat. Med. 2001, 7, 1159-62). Briefly, 4×10^7 autologous PBMCs were stimulated for 6 h with 1 μg/mL overlapping human cytomegalovirus phosphoprotein 65 (pp65) and immediately early 1 protein (IE1) peptide pools (JPT Peptide Technologies). Pools consisted of 15-mer peptides overlapping by 10 amino acids and were dissolved in dimethyl sulfoxide (DMSO). IFNγ producing cells underwent positive selection by the IFNγ capture-system (Miltenyi Biotech) according to the protocol provided by the manufacturer. IFNγ+ cells were next cultured for 18 days in 24-well plates together with 10^7 irradiated autologous PBMCs using RPMI 1640 supplemented with 10% fetal bovine serum 1% Penicillin/Streptomycin (Biochrom) and 50 U/mL rIL2 (Chiron) and 10 ng/mL rIL7 (Cellgenix) or solitary when indicated elsewise. Where indicated, either mTor-inhibitor (sirolimus, Sigma-Aldrich) at very low dose (VLD, 2 nM) and low dose (LD, 20 nM) or IL2 receptor antagonist (Basiliximab, Simulect, Novartis) at 20 μg/mL were added from day 1 on every two days together with subsequent media supplementation."}, "[3]": {"system": "CMV strain NEWT infected autologous monocytes", "test": "Response of expanded T cells to NEWT infected autologous monocytes / iDC", "conditions": "co-culture 18 h, T cell/target ratio 10:1", "protocol": "Differentiated monocytes infected with CMV-related laboratory wildtype strain NEWT were used as targets. To mimic CMV-infection, autologous LCL were pulsed with 1 μg/mL overlapping CMVpp65/IE-1 peptide pools, whereas unpulsed LCL display uninfected targets. Targets were labeled with 10 μM carboxyfluorescein succinimidyl ester (CFDA-SE Molecular Probes). As controls, unpulsed LCL and uninfected differentiated monocytes (Fibroblast incubated) were labeled with 5 μM dimethyldodecylamine oxide-succinimidyl ester (Far Red; Invitrogen). Cells were co-cultured for 16 h in T cell/target ratio of 10:1. Probes were analyzed as triplicates using LSR-II flow cytometer. […] Analysis was gated on live/dead-discrimination staining-dye negative cells (near-IR fluorescent reactive dye, Invitrogen). The mean percent survival of pulsed or NEWT infected targets was calculated relative to antigen-unpulsed controls. Percentaged lytic activity of target lysis was calculated as follows: mean percent survival of targets in cultures containing defined numbers of effector T cells in comparison to control cells without T cells. […]\nFollowing antigen specific stimulation, cytokine secretion (IFNγ, TNFα and IL2) and activation marker expression (CD137 and CD154) were determined by intracellular fluorescence staining. […] Cells were measured with a LSR-II flow cytometer and analyzed using FlowJo Version 8 software (Tree Star). […]"}, "CMV-specific T cells [4]": {"system": "CMV-specific T cells", "test": "CD4+ and CD8+ expression of CMV-specific T cells after 18 days of expansion (flow cytometry)", "conditions": "for CD4+/CD8+ T cell ratio: after 18 days of expansion, Sirolimus LD 20 nmol/l or VLD 2 nmol/l, aIL2R 20 μg/mL, every 2 days; for CD4+ T cell proportion in the culture: after 18 d expansion", "protocol": "as §2\nas §1, with “Lymphocytes were gated based on the FSC versus SSC profile and subsequently gated on FSC (height) versus FSC to exclude doublets.” left out"}, "CMV-specific T cells [5]": {"system": "CMV-specific T cells", "test": "Differentiation / central memory phenotype (CCR7, CD45RA, CD62L, CD127) of expanded CMV-specific T cells", "conditions": "for CD62L expression on purified CD8+ T cells: CD8+ T cells cultured separately; for CD62L expression on purified CD8+ T cells / CD62L expression, CD8+ T cell bulk cultures and separately cultured CD4+ T cells: FIG. 12; for expression of the cell surface marker CD62L: CMV specific T-cell lines, day 18, six independent experiments; for central/memory T cells (CCR7+ CD45RA-): after 18 days of expansion; for expansion rate and keeping the TCM phenotype with full functionality: cultivation with both IL-2 and IL-7, FIG. 13; for CD62L expression, CD8+ T cell bulk cultures and separately cultured CD4+ T cells: rapamycin LD; for TCM formation: together with either IL-2 or IL-7, FIG. 13, four independent experiments", "protocol": "as §2, §1"}, "[6]": {"conditions": "day 18, after antigen specific stimulation"}}, "data": [{"molecule": "CO[C@H]1C[C@@H]2CC[C@@H](C)[C@@](O)(O2)C(=O)C(=O)N2CCCC[C@H]2C(=O)O[C@H]([C@H](C)C[C@@H]2CC[C@@H](O)[C@H](OC)C2)CC(=O)[C@H](C)/C=C(\\C)[C@@H](O)[C@@H](OC)C(=O)[C@H](C)C[C@H](C)/C=C/C=C/C=C/1C", "note": "[Sirolimus]", "values": [{"measurement": "CD137 activation marker expression on CD8+ T cells", "setting": "CMV-specific T cells [1]; [6]", "result": "dose-dependent elevated"}, {"measurement": "CD137 and CD154 activation marker expression on CD4+ T cells", "setting": "CMV-specific T cells [1]; [6]", "result": "not impaired"}, {"measurement": "quantity and quality of virus-specific T cells", "setting": "CMV-specific T cells [1]", "result": "enhance the quantity and quality"}, {"measurement": "clonal expansion", "setting": "CMV-specific T cells [2]; 18 days of expansion", "result": "without affecting clonal expansion"}, {"measurement": "expansion of central memory T cells (TCM)", "setting": "CMV-specific T cells [2]", "result": "sequential expansion of both CD4 and CD8 central memory T cells"}, {"measurement": "response to NEWT infected autologous monocytes (IFNγ, TNFα, CD137, CD154)", "setting": "[3]", "result": "superiorly respond"}, {"measurement": "CD4+/CD8+ T cell ratio", "setting": "CMV-specific T cells [4]", "result": "more balanced CD4+/CD8+ T cell ratio"}, {"measurement": "CD4+ T cell proportion in the culture", "setting": "CMV-specific T cells [4]", "result": "increased the CD4+ T cell proportion"}, {"measurement": "CD62L expression on purified CD8+ T cells", "setting": "CMV-specific T cells [5]", "result": "could not be enhanced"}, {"measurement": "expression of the cell surface marker CD62L", "setting": "CMV-specific T cells [5]", "result": "significant prolonged expression"}, {"measurement": "central/memory T cells (CCR7+ CD45RA-)", "setting": "CMV-specific T cells [5]", "result": "significantly increases central/memory T cells"}, {"measurement": "expansion rate and keeping the TCM phenotype with full functionality", "setting": "CMV-specific T cells [5]", "result": "best results"}, {"measurement": "CD62L expression, CD8+ T cell bulk cultures and separately cultured CD4+ T cells", "setting": "CMV-specific T cells [5]", "result": "increased CD62L expression"}, {"measurement": "TCM formation", "setting": "CMV-specific T cells [5]", "result": "promotes TCM formation"}]}, {"molecule": "Basiliximab [aIL2R]", "values": [{"measurement": "CD137 activation marker expression on CD8+ T cells", "setting": "CMV-specific T cells [1]; [6]", "result": "dose-dependent elevated"}, {"measurement": "expansion of central memory T cells (TCM)", "setting": "CMV-specific T cells [2]", "result": "sequential expansion of both CD4 and CD8 central memory T cells"}, {"measurement": "response to NEWT infected autologous monocytes (IFNγ, TNFα, CD137, CD154)", "setting": "[3]", "result": "superiorly respond"}, {"measurement": "CD4+/CD8+ T cell ratio", "setting": "CMV-specific T cells [4]", "result": "more balanced CD4+/CD8+ T cell ratio"}, {"measurement": "CD62L expression on purified CD8+ T cells", "setting": "CMV-specific T cells [5]", "result": "could not be enhanced"}, {"measurement": "expression of the cell surface marker CD62L", "setting": "CMV-specific T cells [5]", "result": "significant prolonged expression"}, {"measurement": "central/memory T cells (CCR7+ CD45RA-)", "setting": "CMV-specific T cells [5]", "result": "significantly increases central memory T cells"}, {"measurement": "expansion rate and keeping the TCM phenotype with full functionality", "setting": "CMV-specific T cells [5]", "result": "best results"}, {"measurement": "CD62L expression, CD8+ T cell bulk cultures and separately cultured CD4+ T cells", "setting": "CMV-specific T cells [5]", "result": "increased CD62L expression"}, {"measurement": "TCM formation", "setting": "CMV-specific T cells [5]", "result": "promotes TCM formation"}]}, {"molecule": "Daclizumab (antibody, chains of the INN, looked up, V domains shown, humanized monoclonal antibody against the alpha chain of IL2-receptor complex, CAS number 152923-59-3; b50 calls it Simulect) VH: QVQLVQSGAEVKKPGSSVKVSCKASGYTFTSYRMHWVRQAPGQGLEWIGYINPSTGYTEYNQKFKDKATITADESTNTAYMELSSLRSEDTAVYYCARGGGVFDYWGQGTLVTVSS VL: DIQMTQSPSTLSASVGDRVTITCSASSSISYMHWYQQKPGKAPKLLIYTTSNLASGVPARFSGSGSGTEFTLTISSLQPDDFATYYCHQRSTYPLTFGQGTKVEVK", "values": [{"measurement": "quantity and quality of virus-specific T cells", "setting": "CMV-specific T cells [1]", "result": "enhance the quantity and quality"}, {"measurement": "CD4+ T cell proportion in the culture", "setting": "CMV-specific T cells [4]", "result": "increased the CD4+ T cell proportion"}]}]}
